Test results: patent US8889878B2, “Haloalky-substituted amides as insecticides and acaricides” (Bayer CropScience AG, priority 2009, dated 2014)

Columns and labels:
Boophilus microplus = Boophilus microplus test (BOOPMI injection), Example 11; format: in vivo; conditions: application rate 20 μg/animal, injected into abdomen, after 7 days
Summary of the method: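 Efficacy rated from fertile egg laying: 100% means none of the ticks laid fertile eggs, read after 7 days. Compound, dissolved and diluted in DMSO, was delivered by abdominal injection, and ticks were kept in dishes under climate control.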

[1] = logP by HPLC on reverse-phase column (EEC Directive 79/831 Annex V.A8); format: physicochemical
Procedure: The logP values reported in the above Tables and Preparation Examples were determined according to EEC Directive 79/831 Annex V.A8 by HPLC (High Performance Liquid Chromatography) on a reverse-phase column (C18). Temperature 43° C.

[2] = test system: mustard beetle (Phaedon cochleariae); test: Phaedon test (PHAECO spray treatment), Example 7; format: in vivo; conditions: application rate 20 g/ha, china cabbage leaf discs sprayed, after 7 days
Procedure: Phaedon Test (PHAECO Spray Treatment)
(§1) • Solvent: 78.0 parts by weight of acetone • 1.5 parts by weight of dimethylformamide • Emulsifier: 0.5 part by weight of alkylaryl polyglycol ether
To prepare an active ingredient formulation, 1 part by weight of active ingredient is mixed with the stated amounts of solvent and emulsifier, and the concentrate is diluted with emulsifier-containing water to the desired concentration. Leaf discs from china cabbage (Brassica pekinensis) are sprayed with an active ingredient formulation of the desired concentration and, after drying, populated with larvae of the mustard beetle (Phaedon cochleariae).
After 7 days, the efficacy in % is determined. 100% means that all beetle larvae were killed; 0% means that no beetle larvae were killed.

[3] = test system: green peach aphid (Myzus persicae); test: Myzus test (MYZUPE spray treatment), Example 17; format: in vivo; conditions: china cabbage leaf discs sprayed, after 6 days
Procedure: Myzus Test (MYZUPE Spray Treatment)
• Solvent: 78 parts by weight of acetone • 1.5 parts by weight of dimethylformamide • Emulsifier: 0.5 part by weight of alkylaryl polyglycol ether
To prepare an appropriate active ingredient formulation, 1 part by weight of active ingredient is mixed with the stated amounts of solvent and emulsifier, and the concentrate is diluted with emulsifier-containing water to the desired concentration. Leaf discs from china cabbage (Brassica pekinensis) infested by all stages of the green peach aphid (Myzus persicae) are sprayed with an active ingredient formulation of the desired concentration.
After 6 days, the efficacy in % is determined. 100% means that all aphids were killed; 0% means that no aphids were killed.

[4] = test system: red spider mite (Tetranychus urticae); test: Tetranychus test, OP-resistant (TETRUR spray treatment), Example 8; format: in vivo; conditions: application rate 20 g/ha, common bean leaf discs sprayed, after 6 days
Procedure: Tetranychus Test, OP-resistant (TETRUR Spray Treatment)
as §1
To prepare an active ingredient formulation, 1 part by weight of active ingredient is mixed with the stated amounts of solvent and emulsifier, and the concentrate is diluted with emulsifier-containing water to the desired concentration.
Leaf discs from the common bean (Phaseolus vulgaris) infested by all stages of the red spider mite (Tetranychus urticae) are sprayed with an active ingredient formulation of the desired concentration.
After 6 days, the efficacy in % is determined. 100% means that all spider mites were killed; 0% means that no spider mites were killed.

[5] = test system: armyworm (Spodoptera frugiperda); test: Spodoptera frugiperda test (SPODFR spray treatment), Example 15; format: in vivo; conditions: maize leaf discs sprayed, after 7 days
Summary of the method: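 Caterpillars placed on dried, sprayed Zea mays leaf discs; formulation of acetone, dimethylformamide and emulsifier diluted with emulsifier-containing water to test concentration. Percent kill scored on day 7.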

SMILES | efficacy in % (fertile eggs laid) (Boophilus microplus) [%] | logP ([1]; HPLC-MS) | efficacy in % [2] [%] | efficacy in % ([3]; application rate 500 g/ha) [%] | efficacy in % [4] [%] | efficacy in % ([5]; application rate 500 g/ha) [%] | efficacy in % ([3]; application rate 100 g/ha) [%] | efficacy in % ([5]; application rate 100 g/ha) [%] | logP ([1]; HPLC, C18 reverse phase, 43° C., acidic range pH 2.7, calibration with alkan-2-ones)
O=C(/C=C/c1ccc(C(=O)NCc2ccccn2)c(Cl)c1)NC(c1cccc(C(F)(F)F)c1)C(F)(F)F (stereo not drawn) [Ia-21] | 100 | HPLC-MS: logP = 2.75; mass | 100 | 100 | – | – | – | – | –
O=C(/C=C/c1ccc(C(=O)NCc2ccccn2)c(C(F)(F)F)c1)NC(c1cccc(C(F)(F)F)c1)C(F)(F)F (stereo not drawn) [Ia-36] | 100 | HPLC-MS: logP = 2.75; mass | – | – | 100 | – | – | – | –
O=C(/C=C/c1ccc(C(=O)NCCOCC(F)(F)F)c(C(F)(F)F)c1)NC(c1cccc(C(F)(F)F)c1)C(F)(F)F (stereo not drawn) [Ia-47] | – | HPLC-MS: logP = 3.58; mass | 100 | – | 90 | 83 | – | – | –
O=C(/C=C/c1ccc(C(=O)Nc2ccc(F)cc2)c(C(F)(F)F)c1)NC(c1cccc(C(F)(F)F)c1)C(F)(F)F (stereo not drawn) [Ia-48] | – | HPLC-MS: logP = 3.89; mass | 100 | – | 90 | – | – | – | –
O=C(/C=C/c1ccc(C(=O)NCc2ccncc2)c(C(F)(F)F)c1)NC(c1cccc(C(F)(F)F)c1)C(F)(F)F (stereo not drawn) [Ia-49] | – | HPLC-MS: logP = 2; mass | – | – | 90 | – | – | – | –
O=C(/C=C/c1ccc(C(=O)NCc2cccnc2)c(C(F)(F)F)c1)NC(c1cccc(C(F)(F)F)c1)C(F)(F)F (stereo not drawn) [Ia-50] | – | HPLC-MS: logP = 2.23; mass | – | – | 100 | – | – | – | –
COC(CNC(=O)c1ccc(/C=C/C(=O)NC(c2cccc(C(F)(F)F)c2)C(F)(F)F)cc1C(F)(F)F)OC (stereo not drawn) [Ia-51] | – | HPLC-MS: logP = 3.18; mass | 100 | – | 90 | – | – | – | –
O=C(/C=C/c1ccc(C(=O)NCC2CCCO2)c(C(F)(F)F)c1)NC(c1cccc(C(F)(F)F)c1)C(F)(F)F (stereo not drawn) [Ia-52] | – | HPLC-MS: logP = 3.27; mass | – | – | 100 | – | – | – | –
COC(C)(C)NC(=O)c1ccc(/C=C/C(=O)NC(c2cccc(C(F)(F)F)c2)C(F)(F)F)cc1C(F)(F)F (stereo not drawn) [Ia-55] | – | HPLC-MS: logP = 3.37; mass | – | 90 | 100 | 83 | – | – | –
CC(NC(=O)c1ccc(/C=C/C(=O)NC(c2cccc(C(F)(F)F)c2)C(F)(F)F)cc1C(F)(F)F)C1CC1 (stereo not drawn) [Ia-56] | – | HPLC-MS: logP = 3.77; mass | 100 | – | 100 | 83 | – | – | –
O=C(/C=C/c1ccc(C(=O)NC2CCC2)c(C(F)(F)F)c1)NC(c1cccc(C(F)(F)F)c1)C(F)(F)F (stereo not drawn) [Ia-61] | – | HPLC-MS: logP = 3.58; mass | 100 | 80 | 100 | – | – | – | –
CC(C)NC(=O)c1ccc(/C=C/C(=O)NC(c2cccc(C(F)(F)F)c2)C(F)(F)F)cc1C(F)(F)F (stereo not drawn) [Ia-62] | – | HPLC-MS: logP = 3.41; mass | 100 | 80 | 100 | – | – | – | –
C#CCNC(=O)c1ccc(/C=C/C(=O)NC(c2cccc(C(F)(F)F)c2)C(F)(F)F)cc1C(F)(F)F (stereo not drawn) [Ia-63] | – | HPLC-MS: logP = 3.36; mass | 100 | 90 | 80 | – | – | – | –
O=C(/C=C/c1ccc(C(=O)NC2CC2F)c(C(F)(F)F)c1)NC(c1cccc(C(F)(F)F)c1)C(F)(F)F (stereo not drawn) [Ia-65] | – | HPLC-MS: logP = 3.33; mass | 100 | – | 90 | – | – | – | –
O=C(/C=C/c1ccc(C(=O)NCc2ccnc(Cl)c2)c(C(F)(F)F)c1)NC(c1cccc(C(F)(F)F)c1)C(F)(F)F (stereo not drawn) [Ia-66] | – | HPLC-MS: logP = 3.41; mass | 100 | – | 90 | – | – | – | –
O=C(/C=C/c1ccc(C(=O)N(C2CCOCC2)C2CC2)c(C(F)(F)F)c1)NC(c1cccc(C(F)(F)F)c1)C(F)(F)F (stereo not drawn) [Ia-67] | – | HPLC-MS: logP = 3.77; mass | 100 | 90 | – | – | – | – | –
CCOC1(NC(=O)c2ccc(/C=C/C(=O)NC(c3cccc(C(F)(F)F)c3)C(F)(F)F)cc2C(F)(F)F)CC1 (stereo not drawn) [Ia-68] | – | HPLC-MS: logP = 3.52; mass | 100 | – | 100 | – | – | – | –

SMILES | efficacy in % (fertile eggs laid) (Boophilus microplus) [%] | logP ([1]; HPLC-MS) | efficacy in % [2] [%] | efficacy in % ([3]; application rate 500 g/ha) [%] | efficacy in % [4] [%] | efficacy in % ([5]; application rate 500 g/ha) [%] | efficacy in % ([3]; application rate 100 g/ha) [%] | efficacy in % ([5]; application rate 100 g/ha) [%] | logP ([1]; HPLC, C18 reverse phase, 43° C., acidic range pH 2.7, calibration with alkan-2-ones)
O=C(/C=C/c1ccc(C(=O)NC2CCOCC2)c(C(F)(F)F)c1)NC(c1cccc(C(F)(F)F)c1)C(F)(F)F (stereo not drawn) [Ia-69] | – | HPLC-MS: logP = 3.12; mass | 100 | 90 | 100 | – | – | – | –
O=C(/C=C/c1ccc(C(=O)NC2(c3ccccn3)CC2)c(C(F)(F)F)c1)NC(c1cccc(C(F)(F)F)c1)C(F)(F)F (stereo not drawn) [Ia-70] | – | HPLC-MS: logP = 3.23; mass | 100 | – | 100 | 83 | – | – | –
O=C(/C=C/c1ccc(C(=O)NCc2ccccc2F)c(C(F)(F)F)c1)NC(c1cccc(C(F)(F)F)c1)C(F)(F)F (stereo not drawn) [Ia-74] | – | HPLC-MS: logP = 3.77; mass | 100 | – | 90 | – | – | – | –
O=C(/C=C/c1ccc(C(=O)NCC2CC2)c(C(F)(F)F)c1)NC(c1cccc(C(F)(F)F)c1)C(F)(F)F (stereo not drawn) [Ia-78] | – | HPLC-MS: logP = 3.52; mass | 100 | 90 | 90 | – | – | – | –
O=C(/C=C/c1ccc(C(=O)NCc2ccc(F)cn2)c(Br)c1)NC(c1cccc(C(F)(F)F)c1)C(F)(F)F (stereo not drawn) [Ia-90] | – | HPLC-MS: logP = 3.23 mass | 100 | – | 80 | – | – | – | –
O=C(/C=C/c1ccc(C(=O)Nc2ccccn2)c(Br)c1)NC(c1cccc(C(F)(F)F)c1)C(F)(F)F (stereo not drawn) [Ia-92] | – | HPLC-MS: logP = 3.47 mass | 100 | – | 80 | – | – | – | –
CC(NC(=O)c1ccc(/C=C/C(=O)NC(c2cccc(C(F)(F)F)c2)C(F)(F)F)cc1Br)C1CC1 (stereo not drawn) [Ia-93] | – | HPLC-MS: logP = 3.42 mass | 100 | – | 90 | – | – | – | –
CN(C(=O)c1ccc(/C=C/C(=O)NC(c2cccc(C(F)(F)F)c2)C(F)(F)F)cc1Br)C1CC1 (stereo not drawn) [Ia-95] | – | HPLC-MS: logP = 3.58 mass | 100 | – | 80 | – | – | – | –
CCOC1(NC(=O)c2ccc(/C=C/C(=O)NC(c3cccc(C(F)(F)F)c3)C(F)(F)F)cc2Cl)CC1 (stereo not drawn) [Ia-96] | – | HPLC-MS: logP = 3.47 mass | 100 | – | 80 | – | – | – | –
Cc1cc(/C=C/C(=O)NC(c2cccc(C(F)(F)F)c2)C(F)(F)F)ccc1C(=O)Nc1ccc(F)cc1 (stereo not drawn) [Ia-99] | – | HPLC-MS: logP = 3.78 mass | 100 | – | 80 | – | – | – | –
O=C(/C=C/c1ccc(C(=O)Nc2ccncc2)c(Cl)c1)NC(c1cccc(C(F)(F)F)c1)C(F)(F)F (stereo not drawn) [Ia-113] | – | HPLC-MS: logP = 1.92 mass | 100 | – | 100 | – | – | – | –
O=C(/C=C/c1ccc(C(=O)NCc2ncccn2)c(C(F)(F)F)c1)NC(c1cccc(C(F)(F)F)c1)C(F)(F)F (stereo not drawn) [Ia-127] | 100 | HPLC-MS: logP = 3.05; mass | – | – | – | – | 90 | 100 | –
C#CC(C)NC(=O)c1ccc(/C=C/C(=O)NC(c2cccc(C(F)(F)F)c2)C(F)(F)F)cc1C(F)(F)F (stereo not drawn) [Ia-138] | 100 | HPLC-MS: logP = 3.58; mass | – | – | – | – | 80 | 100 | –
O=C(/C=C/c1ccc(C(=O)NC(CF)CF)c(C(F)(F)F)c1)NC(c1cccc(C(F)(F)F)c1)C(F)(F)F (stereo not drawn) [Ia-143] | 100 | HPLC-MS: logP = 3.48; mass | – | – | – | – | 100 | 100 | –
O=C(/C=C/c1ccc(C(=O)NCC(F)F)c(Cl)c1)NC(c1cccc(C(F)(F)F)c1)C(F)(F)F (stereo not drawn) [Ia-156] | 100 | HPLC-MS: logP = 3.34; mass | – | – | – | – | 100 | 100 | –
O=C(NC(c1cccc(C(F)(F)F)c1)C(F)(F)F)c1cc2cc(Cl)c(C(=O)NC3CC3)cc2[nH]1 (stereo not drawn) [Ic-18] | 100 | – | 100 | – | 80 | – | – | – | HPLC-MS: logP = 2.98; mass
